From paper PMC5072831, “Novel Nuclear Factor-KappaB Targeting Peptide Suppresses β-Amyloid Induced Inflammatory and Apoptotic Responses in Neuronal Cells” (PLoS ONE, 2016)

Tests used:
NF-κΒ p65 = settings: ref [61]; cited from earlier work
Source text: There is increasing interest in developing disease modifying agents for neurodegenerative diseases based on molecular pathogenesis. […] As opposed to high throughput screening, computational design of interface peptide mimics followed by functional evaluation represe ...

caspase-3 = settings: ref [70], [71]; cited from earlier work
Source text: Multiple caspases including caspase-3 and caspase-9 are transcriptionally elevated in AD [66, 67].

[1] = test system: human fetal brain cells (HFB); test: CTG viability in human primary mixed brain cultures (HFB); type: cell-based
Experimental: HFB were prepared and cultured as described (S1 and S2 Docs). Briefly, cells were cultured in Neurobasal medium (Invitrogen) without phenol red supplemented with 1xB27, […], 1xantibiotic cocktail, 5ng/mL recombinant fibroblast growth factor 2 (bFGF) (Invitrogen), and 2μL/mL Normocin (InVivoGen, San Diego, CA, USA). Cells were counted and seeded onto poly-D-lysine (Sigma-Aldrich) coated 24-well plates (Corning, Lowell, MA, USA) at 1.5x10^5 cells per well and maintained at 37°C in a 5% CO2 incubator. Half media changes were performed every 4th day of culture and morphology was monitored via phase contrast microscopy. Culture medium was removed from cells on day 17 (DIV17) and replaced with Neurobasal medium with B27. […] Cells and conditioned media were harvested and stored for further analysis. Relative ATP concentration was measured using the CTG kit (Promega). Data is presented as ΔRLU = RLU of Aβ1–42 exposed cells–RLU unexposed cells. Conditioned media collected were assessed for specific cytokines using the OptEIA kits (BD Biosciences).

[2] = test system: activated p65 NF-κΒ subunit; test: NF-κB assay, nuclear p65 DNA binding (TransAM) in HFB; type: cell-based, human; settings: HFB exposed to Aβ1–42, 4 h, 5μg nuclear extract, TransAM ELISA; average+/-SD from two experiments
Experimental: (§1) Primary HFB exposed to Aβ1–42 and treated with GA or CP as above was harvested at the end of 4h. Nuclear and cytoplasmic fractions were extracted using the CelLytic™ NuCLEAR™ Extraction Kit (Sigma) following manufacturer’s protocol. Five microgram of nuclear extracts was incubated in a 96-well plate coated with oligonucleotides containing the NF-κΒ consensus nucleotide sequence (5’-[…]-3’). The activated NF-κΒ bound to DNA was detected by anti-p65 antibody followed by a peroxidase coupled secondary antibody and substrate using the TransAM kit protocol (Active Motif). Nuclear extracts of Raji cells was used as the positive control.
Fig 6 Effect of GILZ analog (GA) treatment on human fetal brain cells (HFB): (A,B): Select GA decrease metabolic activity in Aβ1–42 exposed HFB. […] Cytoplasmic extracts of cells collected at 24h was assessed for viability by CTG assay. […] HFB cells were cultured as above and culture medium collected at 24hrs was assessed for pro-inflammatory (IL-1β, IL-6 and IL-17) (C, D, E and F) and anti-inflammatory (TGF-β) (G) cytokines. […] The p65 DNA binding activity was calculated as the ratio of absorbance from Aβ1–42 stimulated cells to that of unstimulated cells. […]
We measured nuclear p65 using activated NF-κΒ specific ELISA and calculated the p65 DNA binding activity as the ratio of absorbance form Aβ1–42 stimulated cells to that of unstimulated cells. […]

nuclear p50 = test: Nuclear p50 in HFB; type: cell-based, human; settings: HFB exposed to Aβ1–42
Experimental: as §1
We measured nuclear p65 using activated NF-κΒ specific ELISA and calculated the p65 DNA binding activity as the ratio of absorbance form Aβ1–42 stimulated cells to that of unstimulated cells. […] There was a trend towards decreased nuclear p65 in Aβ1–42 exposed cells treated with GA-1 (6.13+/-1.3) and GA-2 (6.7+/-1.5) as compared to untreated cells (14.75+/-3.5). Nuclear p65 of Aβ1–42 exposed cells treated with CP-1, CP-2 and CP-3 measured 6.8+/-3.9, 10.2+/-2.9 and 10.1+/-3.7 respectively (Fig 6H). […] Although we observed slightly elevated nuclear p50 in Aβ1–42 (6.15+/-1.2) than in unexposed cells (0.5+/-2.7), no difference was observed between GA peptide of CP treated cells and untreated cells (data not shown).

IL-1β mRNA = IL-1β mRNA in HFB by quantitative real-time PCR; type: cell-based, human; settings: Aβ1–42 exposure alone
Experimental: (§2) Primary HFB exposed to Aβ1–42 and treated with GA or CP as above was harvested at the end of 24h. Total cellular RNA was isolated using Qiagen kit (Invitrogen, Carlsbad, CA) following manufacturer's protocol. Total RNA (2–4 μg) was reverse transcribed using iScript cDNA synthesis kit (Biorad, CA). The concentration of the cDNA was measured at 260 and 280 nm by the Gensys5 model UV-visible spectrophotometer (Thermoelectronic Corp.,CA). Real-time PCR was performed by using the SYBR green/ROX qPCR master mix (SABiosciences, Frederick, MD) according to manufacturer's recommendations on the CFX96 Touch™ Real-Time PCR Detection System (Biorad laboratories, Hercules, California, USA). Each reaction contains 2×12.5 μl of SYBR green Master Mix, 1 μl of 10 μM of primers and 50 ng of the cDNA, to a total volume of 25 μl. The thermal cycling conditions included an initial denaturation step at 50°C for 2 min, 95°C for 3 min, 39 cycles at 95°C for 30 s, annealing temperature at 54°C for 30 s and extension at 72°C for 30s. The primers are F-GAPDH-5′-[…]-3′; R-GAPDH:5′-G […]-3′(102bp); F-IL-1β:5′-[…]-3′; R-IL-1β:5′[…]-3′ (89 bp); F-IL-6:5′-[…] […] The difference in each gene-specific threshold between the samples from vehicle treated and GA or CP treated cells was determined to obtain the relative change in the specific mRNA. The magnitude of change in the mRNA was expressed as 2^ΔΔCt. […]

IL-6 mRNA = IL-6 mRNA in HFB by quantitative real-time PCR; type: cell-based, human; settings: Aβ1–42 exposure alone
Experimental: as §2

Caspase-3 mRNA = Caspase-3 mRNA in HFB by quantitative real-time PCR; type: cell-based, human; settings: Aβ1–42 exposure alone
Experimental: as §2

Caspase-9 mRNA = Caspase-9 mRNA in HFB by quantitative real-time PCR; type: cell-based, human; settings: Aβ1–42 exposure alone
Experimental: as §2

[3] = ref [67]; cited from earlier work

For `C=C1C(=O)[C@]23C[C@H]1C[C@H](OC(C)=O)[C@H]2[C@]1(C)[C@@H](OC(C)=O)C[C@H](O)C(C)(C)[C@H]1C(=O)[C@@H]3OC(C)=O` [adenanthin], the “effect in AD models” value (NF-κΒ p65) is listed as “interact with NF-κΒ p65, suppress inflammation and cytotoxicity in AD models”.

In the case of `COc1ccc2[nH]cc(CCNC(C)=O)c2c1` [melatonin], the “effect on Aβ-induced caspase-3 activity” value (caspase-3) is given as “suppress Aβ-induced caspase-3 activity”.

For `Oc1ccc(/C=C/c2cc(O)cc(O)c2)cc1` [resveratrol], the “effect in AD models” value (NF-κΒ p65) is listed as “interact with NF-κΒ p65, suppress inflammation and cytotoxicity in AD models”.

In the case of “Aβ1–42: Purified Aβ1–42 peptide (American Peptide company), used as stimulus”, the “average RLU of cultures exposed to Aβ1–42” value ([1]; lower end over different experiments) is reported as 6067.25+/-903.05, the “average RLU of cultures exposed to Aβ1–42” value ([1]; upper end over different experiments) is reported as 11574.25+/- 4139.3 and the “nuclear p65 DNA binding activity (ratio of absorbance, Aβ1–42 stimulated / unstimulated)” value [2] is reported as 14.75+/-3.5. The “nuclear p50” value (nuclear p50) was 6.15+/-1.2, the “IL-1β mRNA (in words)” value (IL-1β mRNA) was “upregulation of mRNA for IL-1β” and the “IL-6 mRNA (in words)” value (IL-6 mRNA) was “upregulation of mRNA for IL-1β and IL-6”. The “caspase 3 mRNA (in words)” value (Caspase-3 mRNA) was “upregulation of mRNA for caspase 3” and the “caspase 9 mRNA (in words)” value (Caspase-9 mRNA) was “upregulation of mRNA for caspase 3 and caspase 9”.

For oncocin, the “influx into CNS and distribution in brain parenchyma” value [3] is given as “significant influx into CNS and distribution within the brain parenchyma”.
